Measured values from patent US20210323918A1, “COMPOSITIONS AND METHODS FOR SUPPRESSING AND/OR TREATING A GROWTH RELATED DISEASE AND/OR A CLINICAL CONDITION THEREOF” (CK Biotech Inc., priority 2018, published 2021).
pIC50: −log10 of the molar value.

Tests used:
CXXC5-DVL interaction = molecular target: T1, CXXC5-DVL interaction (Homo sapiens, UniProt O14640); test: In vitro CXXC5-DVL binding assay (FITC-tagged PTD-DBMP on DVL PDZ domain); conditions: from dose-response curve, FIG. 4B
T1 construct: 5 mg/ml purified DVL PDZ domain was incubated in each well
T1 sequence (O14640 251-323 limits assumed): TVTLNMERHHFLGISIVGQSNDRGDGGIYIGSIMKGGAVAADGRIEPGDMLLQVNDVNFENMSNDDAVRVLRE

GSK3β (human) = GSK3β (human) (Homo sapiens, UniProt P49841); test: GSK3β kinase assay; assay type: biochemical; conditions: from dose-response curve, FIG. 4C; read-out: IC50, in vitro GSK3β activity
Procedure: GSK3β kinase assay. GSK3β (human) was incubated with 8 mM MOPS (pH 7.0), 0.2 mM EDTA, 20 μM […](p) EDEEE (phospho-GS2 peptide) (SEQ ID NO. 37), 10 mM Mg acetate, and [γ-33P-ATP] (specific activity approx. 500 cpm/pmol, concentration as required). The reaction was initiated by the addition of the Mg-ATP mixture. After incubation for 40 minutes at room temperature, the reaction was stopped by addition of 3% phosphoric acid solution. 10 μl of the reaction was then spatted onto a P30 filtermat and washed three times for 5 minutes in 50 mM phosphoric acid and once in methanol prior to drying and scintillation counting.

ATDC5 cells = test: Wnt/β-catenin signaling, proliferation and differentiation in ATDC5 chondrogenic cells; assay type: cell-based, mouse
Text: Cell culture and reagents. The mouse chondrogenic cell line, ATDC5, was obtained from the RIKEN Cell Batik. The human juvenile costal chondrocyte cell line, C28/I2, was provided by Dr. W. U. Kim (Catholic University, Korea). HEK293-TOP cells (HEK293 cells containing the chromosomally incorporated TOPFlash gene) were provided by Dr. S. Oh (Kuk Min University, Korea). ATDCS cells were maintained in DMEM/F12 (1:1) (Gibco, Grand Island, N.Y.) supplemented with 5% FBS (Gibco). To induce hypertrophic differentiation, ATDC5 cells were incubated with insulin-transferrin-sodium selenite (ITS) supplement (Gibco) in three-dimensional alginate beads for 3 days, as previously described. See e.g., Kawasaki Y. et al. (2008), Phosphorylation of GSK-3beta by cGMP-dependent protein kinase II promotes hypertrophic differentiation of murine chondrocytes. J CLIN INVEST 118: 2506-2515. C28/I2 and HEK293-TOP cells were maintained in DMEM (Gibco) containing 10% FBS. All chemicals were dissolved in dimethyl sulfoxide (DMSO; Sigma-Aldrich, St Louis, Mo.) for the in vitro studies. For E2 (17β-estradiol; Sigma-Aldrich) treatment, cells were cultured in phenol red-free DMEM/F12 with 5% charcoal-stripped FBS for 24 hours followed by serum-free medium for 24 hours before the experiment. The PTD-DBMP was synthesized by Peptide 2.0 Inc (Chantilly, Va.).
Immunocytochemistry. ATDCS or C28/I2 cells were seeded on glass coverslip in 12-well culture plates. The cells were washed with PBS and fixed with 4% PFA at room temperature for 15 minutes. After permeabilization with 0.1% triton-X-100 for 15 minutes and blocking with 5% BSA for 1 hour, the cells were incubated with primary antibodies specific for β-catenin (1:100) or CXXC5 l (1:200) at 4° C. overnight. The cells were washed in PBS and incubated with Alexa Fluor 488 or Alexa Fluor 555 secondary antibodies (1:200) at room temperature for 1 hour. Cell nuclei were counterstained with DAPI for 10 minutes and the stained samples were examined under a LSM700 META microscope using 405-, 488-, or 543-nm excitation wavelengths. For BrdU assay, cultured cells were incubated with BrdU solution (25 μM) overnight, followed by immunocytochemical staining with antibody against BrdU (1:100).
Immunoblot analyses. […] Protein samples were separated on a 8-12% sodium dodecylsulfate polyacrylamide gel electrophoresis (SDS-PAGE) and transferred to a nitrocellulose membrane (Whatman). Immunoblotting was performed with the following primary antibodies: anti-β-catenin (Santa Cruz Biotechnology, Santa Cruz, Calif., sc-7199; 1:3,000), anti-CXXC5 (lab made;1:200) anti-Myc tag (MBL, Aichi, Japan, M192-3; 1:1,000), anti-FLAG (Sigma-Aldrich, F7425; 1:1,000), anti-p-GSK3β (S9; Cell Signaling Technology, Danvers, Mass., 9336S; 1:1,000), anti-COL2A1 (Santa Cruz Biotechnology, sc-28887; 1:500), anti-RUNX2 (Abcam, ab23981; 1:500), anti-COLIOAI (Cosmo Bio, LSL-LB-0092; 1:500), anti-MMP13 (Santa Cruz Biotechnology, sc-30073; 1:500), anti-ERK (Santa Cruz Biotechnology, sc-94; 1:3,000) and anti-α-tubulin (Cell Signaling Technology, 3873S; 1:20,000). Samples were then incubated with horseradish-peroxidase-conjugated anti-mouse (Cell Signaling Technology, 7076; 1:3,000), anti-rabbit (Bio-Rad, 1706515; 1:3,000), or anti-goat (Santa Cruz Biotechnology; sc-2020; 1:3,000) secondary antibodies. Protein bands were visualized with enhanced chemiluminescence (ECL; Amersham Bioscience, Piscataway, N.J.) using a luminescent image analyzer, LAS-3000 (Fujifilm, Tokyo, Japan). Immunoblot bands were analyzed using Multi-Gauge V3.0 software (Fujifilm). Points of interest (POIs) from immunoblot bands were marked and quantified using densitometry, and the background signals were subtracted from respective immunoblot signals. Relative densitometry values were presented as the intensity ratios of each protein to loading control protein (α-tubulin or ERK).
Immunoprecipitation. Immunoprecipitation was performed as previously described (Kim et al, 2015). […]

[1] = ATDC5 cells, 0.01 or 0.1 μM, 4 hours, FIG. 12

GSK3β (human), sequence (P49841 whole entry): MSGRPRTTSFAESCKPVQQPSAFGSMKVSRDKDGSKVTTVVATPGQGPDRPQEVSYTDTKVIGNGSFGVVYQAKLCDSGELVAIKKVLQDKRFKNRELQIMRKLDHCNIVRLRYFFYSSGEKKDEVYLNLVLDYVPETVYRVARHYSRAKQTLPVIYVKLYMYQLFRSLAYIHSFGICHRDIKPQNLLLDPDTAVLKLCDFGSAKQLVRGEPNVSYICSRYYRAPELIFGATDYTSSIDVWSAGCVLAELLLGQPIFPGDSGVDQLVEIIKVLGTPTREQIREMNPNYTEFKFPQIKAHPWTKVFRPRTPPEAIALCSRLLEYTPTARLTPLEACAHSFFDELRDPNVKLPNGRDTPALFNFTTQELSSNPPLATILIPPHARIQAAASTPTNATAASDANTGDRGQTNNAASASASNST

SMILES: CO/N=C1/C(=C2/C(=O)Nc3cc(Cl)c(Cl)cc32)Nc2ccccc21 [KY19382, 5,6-dichloroindirubin-3′-methoxime]
- pIC50 (CXXC5-DVL interaction): 7.72
- pIC50 (GSK3β (human)): 8.00
- number of BrdU-positive ATDC5 cells (ATDC5 cells; 0.01 or 0.1 μM, 48 hours, FIG. 11A): enhanced number
- CXXC5-DVL interaction, immunoprecipitation (ATDC5 cells; ATDC5 cells, 0.1 μM, 4 hours, FIG. 4F): interruption of the CXXC5-DVL interaction
- nuclear translocation of β-catenin (ATDC5 cells; ATDC5 cells, 0.1 μM, 48 hours, FIG. 4G): elevated
- mRNA levels of chondrogenic markers (ATDC5 cells; ATDC5 cells, 0.1 μM, 3 days, alginate beads, FIG. 11B): upregulated
- expression levels of Wnt/β-catenin target genes (Fosl1, Wisp1, Axin2) (ATDC5 cells; [1]): markedly increased
- off-target effects: 19 other genes that respond to other pathways, mRNA (ATDC5 cells; [1]): not significantly altered
- β-catenin level with inactivation of GSK3β, immunoblot (ATDC5 cells; ATDC5 cells, 24 hours, FIG. 4E): increment of β-catenin
